# Laboratory results from US20220313581A1, “NOVEL COMPOUNDS FOR SKIN LIGHTENING” (Conopco, Inc. , d/b/a UNILEVER, priority 2019, published 2022).
# Test system: Melanoderm human tissue (MEL-300-B, Mattek Corp.)
# Assay: Melanoderm assay (melanin quantitation)
# Format: cell-based
# Details: for Melanin content / skin lightening effect (in words): melanoderm treatment, 10 uM, compared to vehicle control; for Melanin (μg/μg protein): test compound 10 uM, 12 d dosing, melanin normalized to protein, mean +/− standard deviation, n = 3, vehicle control 0.240 +/− 0.020
# Procedure: Control compounds consisted of a negative control (ultrapure water), vehicle control [Dimethylsulfoxide (DMSO) in ultrapure water—final concentration of 0.1%] and positive control (2% kojic acid in ultrapure water—final concentration of 700 uM). Test compounds where prepared in DMSO at 10 mM concentrations and diluted with EPI-100-LLMM media (Mattek Corp.) to a final concentration of 10 uM. Melanoderm human tissue (MEL-300-B, Mattek Corp.) was equilibrated with EPI-100-NMM media for 24 h, followed by equilibration with EPI-100-LLMM media for 48 h prior to treatment with test compounds and controls. Dosing and re-feeding of melanoderms with controls and test compounds continued for a total of 12 d following standard protocols and the melanoderms collected for melanin quantitation, viability analysis and macroscopic/microscopic imaging analysis. For melanin quantitation, tissues were suspended in phosphate buffer saline (PBS) buffer (5 ml) for 5 min, removed from the PBS and washed/rinsed with additional PBS (2 ml). Tissues were treated with 1% sodium bicarbonate solution (300 ul) for 30 min, followed by removal of the sodium bicarbonate solution and washed/rinsed with PBS solution (2×2 ml). Tissues were suspended in Solvable reagent (500 ul) and incubated at 95° C. for 24 h along with melanin standard samples (prepared by suspending melanin (cat #M8631, Sigma-Aldrich) in Solvable reagent to generate melanin standards at 0, 2.5, 5, 10, 25, 50 and 100 ug). All incubated samples were centrifuged at 13000 rpm for 5 min and the optical density of the supernatant was read/determined at 490 nm. The amount of melanin (ug) from each tissue sample was determined from the melanin standard samples calibration curve. Protein concentration of tissue samples was determined using the BCA protein assay kit (Pierce) and melanin content was normalized and expressed as melanin (ug)/protein (ug) (Table 1). Tissue viability as a result of test compound dosing/feeding relative to negative and vehicle controls was determined using the WST-1 reagent kit (cat #05015944001, Roche). Tissue images were examined macroscopically to assess the skin lightening ability of test compounds compared to negative, vehicle and positive controls and microscopically (10× magnification) to assess cytotoxicity.
Compound,Melanin content / skin lightening effect (in words),Melanin (μg/μg protein)
"CC(C)Oc1ccc(C(NC2CCC(O)CC2)C2CCCCC2)cc1 (stereo not drawn) [Example 1, 4-((cyclohexyl(4-isopropoxyphenyl)methyl)amino)cyclohexanol]",reduced melanin content,0.158 +/− 0.006 μg/μg protein
"CC(C)Oc1ccc(C(NC2CCC(CCO)CC2)c2ccccc2)cc1 (stereo not drawn) [Example 2, 2-(4-(((4-isopropoxyphenyl)(phenyl)methyl)amino)cyclohexyl)ethanol]",reduced melanin content,0.076 +/− 0.012 μg/μg protein
"CC1CCC(NC(c2ccccc2)c2ccc(OC(C)C)cc2)CC1 (stereo not drawn) [Example 3, N-((4-isopropoxyphenyl)(phenyl)methyl)-4-methylcyclohexanamine]",reduced melanin content,0.144 +/− 0.006 μg/μg protein
